The source of these data is patent US11479587B2, “Cationic intrinsically disordered antimicrobial peptides” (priority 2016, dated 2022).

No end group written: not given here. *: point of attachment. Palmitoyl = CCCCCCCCCCCCCCCC(=O)*; Myristoyl = CCCCCCCCCCCCCC(=O)*

First the molecules themselves.
B1: SQHKSSSGQSSGYSQHGSGSGHSSGYGQHGSRSGQSSRGDRHRSSSGSSSSYGQHGSGSRQSL (peptide)
chain: SQHKSSSGQSSGYSQHGSGSGHSSGYGQHGSRSGQSSRGDRHRSSSGSSSSYGQHGSGSRQSL
modifications: Peptide derived from human hornerin (HRNR 232-294)
B2: GHKSSSGQSSGYTQHGSGSGHSSSYEQHGSRSGQSSRSEQHGSSSGSSSSYGQHGSGSRQSL (peptide)
chain: GHKSSSGQSSGYTQHGSGSGHSSSYEQHGSRSGQSSRSEQHGSSSGSSSSYGQHGSGSRQSL
modifications: Peptide derived from human hornerin (HRNR 933-994)
B3: GHGRQGSGSRQSPSHVRHGSGSGHSSSHGQHGSGSSYSYSRGHYESGSGQTSGFGQHESGSGQSSGY (peptide)
chain: GHGRQGSGSRQSPSHVRHGSGSGHSSSHGQHGSGSSYSYSRGHYESGSGQTSGFGQHESGSGQSSGY
modifications: Peptide derived from human hornerin (HRNR 295-361)
B4: LGHGQHGSGSGQSPSPSRGRHGSGSGQSSSYGPYRSGSGWSSSRGPYESGSGHSSGLGHRER (peptide)
chain: LGHGQHGSGSGQSPSPSRGRHGSGSGQSSSYGPYRSGSGWSSSRGPYESGSGHSSGLGHRER
modifications: Peptide derived from human hornerin (HRNR 995-1056)

The first assay concerns S. aureus ATCC 6538. As to the kind of experiment: CFU-assay, S. aureus-cidal activity. Type of assay: cell-based, Staphylococcus aureus. The settings on record: pH 5.5. On the procedure:
Thus, within the present invention, the antimicrobial activity is generally measured in nutrient deficient 10 mM sodium phosphate buffer pH 5.5, containing 0.25% glucose, using the CFU-assay according to Steinberg and Lehrer, 1997 (supra), unless otherwise indicated. The CFU-assay allows determination of the minimal bactericidal concentration (MBC, e.g., MBC90 and MBC100; i.e. the concentration of compound required to achieve a specified reduction in bacterial cell number (microbial death or killing)).
Various peptides corresponding to repeat domains of hornerin (HR 1-11: HRNR 2606-2628; HR 1-17: HRNR 2656-2684 and HR 1-18: HRNR 2656-2677) were tested for P. aeruginosa ATCC 10145-cidal activity in 10 mM Na-phosphate buffer pH 5.5, containing 0.25% glucose by counting the numbers of colonies of surviving bacteria at serial, twofold dilutions from 300 μg/ml down to 19 ng/ml of each peptide (CFU-assay; Steinberg and Lehrer, 1997, Methods Mol. Biol. 78, 169-186).
Staphylococcus aureus is a major skin pathogen, which causes skin infections, in particular in atopic dermatitis. The sensitivity of S. aureus ATCC 6538 towards several CIDAMPs was assessed using the CFU-assay as above (see Example 1). HR 1-18, which lacks S. aureus.-bactericidal activity, is converted in a S. aureus-cidal peptide, when all His are replaced by Arg (HR 1-18 4H-4R; see Table 13 and FIG. 9). […] HR 1-18 4H-4R is rich in Ser and Arg and contains a single Leu residue. When this single Leu was replaced by Gly in S. aureus-cidal HR 1-18 4H-4R (forming HR 1-18 4H-4R/L-G), S. aureus-cidal activity was abolished at both pH 7.0 and pH 5.5 (see Table 13 and FIG. 9).
Turning to “SGHSSVFGQHESGSGHSSAYSQHGSGSGHFC-Pal* (SGHSSVFGQHESGSGHSSAYSQHGSGSGHFC(Palmitoyl)-NH2) [S-Pal-HRNR1748-1778]”, the MBC100 turned out to be 2.8 µM.

Staying with this assay, now noted: pH 5.5, 0.25% glucose.
In the case of “GQHGSSSGHSSTHGQHGSTSGQSSSC-Pal* (GQHGSSSGHSSTHGQHGSTSGQSSSC(Pal)-NH2) [S-Pal-HRNR598-623]”, the MBC90 came out at 2.35 mg/L and the MBC100 is >150 mg/L.
The corresponding values for “Pal-CGQHGATSGQSSSHGQHGSGSSQSSR (C(Palmitoyl)GQHGATSGQSSSHGQHGSGSSQSSR) [S-Pal-HRNR623-648]” are 2.35 mg/L and >150 mg/L.
On the same counts, the results for “SGHSSVFGQHESGSGHSSAYSQHGSGSGHFC-Pal* (SGHSSVFGQHESGSGHSSAYSQHGSGSGHFC(Palmitoyl)-NH2) [S-Pal-HRNR1748-1778]” are 0.3 mg/L and 9.38 mg/L.
The corresponding values for “Pal-SHHRHFRSHQCRRQRSNSCDR (Palmitoyl-SHHRHFRSHQCRRQRSNSCDR; cysteine pairing not given here) [Pal-LCE3C55-75]” are 0.15 mg/L and 0.59 mg/L.
Regarding “GQHGSSSGHSSTHGQHGSASGQSSSC-Pal* (GQHGSSSGHSSTHGQHGSASGQSSSC(Pal)-NH2) [S-Pal-HRNR2004-2029]”, the MBC90 stood at 0.59 mg/L.
On to “GRHGSGSGQSSGFGHHESSSWQSSGC-Pal* (GRHGSGSGQSSGFGHHESSSWQSSGC(Palmitoyl)-NH2) [S-Pal-HRNR1389-1414]”, for which the MBC90 amounted to 1.18 mg/L and the MBC100 was determined as 18.8 mg/L.
On the same counts, the results for “Pal-CGQHGATSSGQSSSHGQHGSGSSQSSGYGR (C(Palmitoyl)GQHGATSSGQSSSHGQHGSGSSQSSGYGR) [S-Pal-HRNR1089-1117]” are >150 mg/L and >150 mg/L.

The assay is the same for the next values; noted with them: pH 5.5, 0.25% glucose (text).
As for “SGHSSVFGQHESGSGHSSAYSQHGSGSGHFC-Pal* (SGHSSVFGQHESGSGHSSAYSQHGSGSGHFC(Palmitoyl)-NH2) [S-Pal-HRNR1748-1778]”, the MBC90 was determined as 0.09 µM.

Still in this assay, the particulars now being: pH 7.3, 1% TSB.
Regarding “Myr-GRRGSGLGRSSSRGQRGSGSGR (Myristoyl-GRRGSGLGRSSSRGQRGSGSGR) [Myr-HR 1-18 HR]”, the MBC90 was found to be 18.75 mg/L and the MBC100 turned out to be 75 mg/L.

The next assay has as its system P. aeruginosa ATCC 10145. As to the kind of experiment: CFU-assay, P. aeruginosa-cidal activity. Type of assay: cell-based, Pseudomonas aeruginosa. As to conditions: pH 5.0, 0.25% glucose.
In the case of “GRHGGGGGHGGGHGGHGGGGGR (Modified peptide derived from human hornerin (HR 1-18 L-G/Q-G/6S-6G))”, the MBC90 came out at 0.038 mg/L and the MBC100 was 0.15 µg/mL.
Consider “GRGGSGLGGSSSGGQGGSGSGRSSSRGPY (Modified peptide derived from human hornerin (HR 1-17 4H-4G all H vs G))”, for which the MBC90 stood at 75 mg/L and the MBC100 is >300 µg/mL.

Still in this assay, the particulars now being: pH 5.5, 0.25% glucose.
Take “HGHGHGHGH (Synthetic cationic intrinsically disordered antimicrobial peptide (GH9))”: the MBC90 was found to be 0.18 µM; the MBC99 entry is reported as “MBC99: 99 μM”; the MBC100 is recorded as >400, μM.
In turn, “HAHSGHGQSTQRGSR (Peptide derived from human filaggrin-2 (FLG-2 2082-2096)) [FLG-22082-2096]” registered an MBC90 of 0.15 mg/L and an MBC100 of 1.18 µg/mL.
On the same counts, the results for “RGRGRGR (Synthetic cationic intrinsically disordered antimicrobial peptide (GR7))” are 0.31 µM and 2.8 µM.
With “RGRGR (Synthetic cationic intrinsically disordered antimicrobial peptide (GR5))”, the MBC90 was 6.1 µM and the MBC100 was >500 µM.
On the same counts, the results for “HTHSGHTHGQARSQHGESESIVHER (Peptide derived from human filaggrin-2 (FLG-2 1742-1766)) [FLG-21742-1766]” are 0.038 mg/L and 0.15 µg/mL.
The corresponding values for “RGSRSGQSSRGERR (Modified peptide derived from human hornerin (HR 1-11s 2H2R-14))” are 0.15 mg/L and 4.7 µg/mL.
On the same counts, the results for “GRHGSGLGHSSSH (Peptide derived from human hornerin (HR 1-37 HRNR 2656-2668)) [HR 1-37 HRNR2656-2668]” are 9.38 mg/L and >300 µg/mL.
“QGSHHEQSVNRSGHSGSHHSHTTSQGR (Peptide derived from human filaggrin (FLG 528-554)) [FLG528-554]” registered an MBC90 of 0.15 mg/L and an MBC100 of 0.59 µg/mL.
As for “GSRTAGRRGSGH (Peptide derived from human filaggrin-2 (FLG-2 2094-2105)) [FLG-22094-2105]”, the MBC100 was >300 µg/mL.
The same measure, in the same setting: the result for “HSQRGSGSRQSPSYGRH (Modified peptide derived from human hornerin (HR 2-16 HRNR1128-1144))” reads 37.5 (only at μg/ml.
On to B1, for which the MBC90 stood at 0.30 mg/L and the MBC100 came out at 2.35 µg/mL.
The corresponding values for B2 are 0.3 mg/L and 2.35 µg/mL.
The corresponding values for B3 are 0.15 mg/L and 0.59 µg/mL.
On the same counts, the results for B4 are 0.3 mg/L and 2.35 µg/mL.

Staying with this assay, now noted: pH 5.5, 1% TSB.
Turning to “SRQSPSYGRHGSGR (Modified peptide derived from human hornerin (HR 2-15 HRNR 1136-1150 S1148R)) [HR 2-15 HRNR1136-1150 S1148R]”, the MBC90 turned out to be 75 mg/L and the MBC100 is >300 µg/mL.
Take “GSGSRQSPSYGRHGSGSGRSSSSGQH (Peptide derived from human hornerin (HR 2-11 HRNR 1132-1157)) [HR 2-11 HRNR1132-1157]”: the MBC90 was determined as 37.5 mg/L and the MBC100 was >300 µg/mL.
As to “GRHGSGSGQSSSYSPYGSGSGWSSSRGPY (Peptide derived from human hornerin (HRNR 2422-2450)) [HRNR2422-2450]”, the MBC100 is >300 µg/mL.
For “HGSRSGQSSGGGRHGSSSGSSSH (Modified peptide derived from human hornerin (HR 1-11 E-G E2617G))”, the MBC90 came to 0.59 mg/L and the MBC100 is >300 µg/mL.
On the same counts, the results for “GSGSRQSSGHGRQGSGSGQ (Modified peptide derived from human hornerin (HR 1-16 HRNR 2633-2651)) [HR 1-16 HRNR2633-2651]” are >300 mg/L and >300 µg/mL.
Consider “RQSPSYGRHGSGSGR (Peptide derived from human hornerin (HR 2-14 HRNR 1136-1150)) [HR 2-14 HRNR1136-1150]”, for which the MBC90 came out at 300 mg/L and the MBC100 was >300 µg/mL.
On the same counts, the results for “HR 2-8: CIDAMP tested alone and in 1:1 mixture with HR 1-8 HRNR2658-2677 (GSGSRQSPSYGR; Peptide derived from human hornerin (HR 2-8))” are 18.75 mg/L and >300 µg/mL.
On the same counts, the results for “GSGSRQSPSHGRHGSGSGR (Modified peptide derived from human hornerin (HR 2-4H HRNR 1132-1150 Y1141H)) [HR 2-4H HRNR1132-1150 Y1141H]” are 75 mg/L and >300 µg/mL.
On to “GRHGSGLGHSSSHGQH (Peptide derived from human hornerin (HR 1-25 HRNR 2656-2671)) [HR 1-25 HRNR2656-2671]”, for which the MBC90 was 0.3 mg/L and the MBC100 was 4.7 µg/mL.

The same assay, now with this note: pH 7.0, 0.25% glucose.
As to “GRHGGGGGHGGGHGGHGGGGGR (Modified peptide derived from human hornerin (HR 1-18 L-G/Q-G/6S-6G))”, the MBC90 is >300 mg/L and the MBC100 was >300 µg/mL.
